This experiment has as its system differentiated human keratinocytes. Kind of experiment: in vitro screening of desquamating activity (release of corneocytes, cellular detachment index, flow cytometer). In kind it is cell-based. To be noted: for % of activity with respect to the control composed of an identical culture in the absence of compound (cellular detachment index): compounds at 5 × 10^−5 M, difference between T60 and T0 (60 minutes after addition), corneocytes counted by flow cytometer. The protocol: This test of in vitro screening of an agent which is active with regard to desquamation was carried out on differentiated human keratinocytes. The principle of the test is based on the fact that desquamation induces the release of corneocytes. The desquamating power of the test product increases as the number of corneocytes released increases.
The protocol of the test was as follows: starting with biopsies of human skin, the keratinocytes obtained by separation from the epidermis were dissociated by enzymatic action with trypsin and were cultured at a concentration of 2×10^5 cell/ml. The growth and differentiation of the keratinocytes was obtained by culturing for 10 to 20 days in a specific medium. The activity of the test product was then evaluated after removal of the culture medium. To do this, two samples were taken at T0 and T60, that namely, before the addition of the product and 60 minutes after this addition. The samples thus taken were analyzed with a flow cytometer in order to count the population of corneocytes. The flow cytometer made it possible to distinguish the populations of corneocytes and of keratinocytes by treatment with acridine orange, which is specific for cellular DNA.
The cellular detachment index was determined by the difference between T60 and T0. The same measurement was carried out for a control not comprising test product, because the experiment inevitably produced the release of corneocytes, even in the absence of active principles.
The test was carried out with 10-hydroxy-2-decenoic acid at a concentration of 5×10^−5M.
(A flow cytometer gives signals particle by particle.)

This is an account of results in patent publication US6514507B2, “Hydroxydecenoic acid compounds for promoting desquamation/epidermal renewal of the skin and/or combating skin aging” (Societe L'Oreal S.A., priority 1998, dated 2003).

For the compound `O=C(O)C=CCCCCCCCO` [10-Hydroxy-2-decenoic acid], the “% of activity with respect to the control composed of an identical culture in the absence of compound (cellular detachment index)” value turned out to be 110%. The “activity with regard to cellular detachment” value (5 × 10^−5 M, differentiated human keratinocytes) is given as “high”.

Regarding `CCCCCCCC(=O)c1ccc(O)c(C(=O)O)c1` [Reference, 2-Hydroxy-5-octanoylbenzoic acid, reference compound], the “% of activity with respect to the control composed of an identical culture in the absence of compound (cellular detachment index)” value came out at 92%.
